Reference: ChEMBL document CHEMBL5038628, “Discovery of spiro amide SHR902275: A potent, selective, and efficacious RAF inhibitor targeting RAS mutant cancers” (Eur J Med Chem, 2022)
pIC50: −log10 of the molar value. Converted amounts (≈) assume the structure as drawn.

Key:
[1] = biological target: RAF proto-oncogene serine/threonine-protein kinase (Homo sapiens, UniProt P04049); assay: Inhibition of human recombinant cRAF measured after 60 mins by TR-FRET assay
Calu-6 = assay: Antitumor activity against human Calu-6 cells xenografted in nude mouse assessed as tumor growth inhibition at 30 mg/kg,IT QD for 12 days relative to control; assay type: functional; settings: Calu-6, 288 h, time 12 day, read-out: TGI
[2] = Solubility of the compound at pH 7.4; settings: buffer
NCI-H358 = assay: Cytotoxicity against human NCI-H358 cells assessed as inhibition of growth measured after 72 hrs by CellTiter-Glo luciferase assay; assay type: functional
[3] = Metabolic stability in human liver microsomes assessed as half life; assay type: ADME, Microsome
[4] = Half life in Sprague-Dawley rat plasma at 1 mg/kg, iv by LC-MS/MS analysis; assay type: ADME, organism-based; settings: for half-life: Sprague-Dawley, plasma; for t1/2: in vivo, 1 mg/kg
[5] = AUC (0 to t) in Sprague-Dawley rat plasma at 2 mg/kg, IG by LC-MS/MS analysis; assay type: ADME, organism-based; set-up: dose 2 mg/kg; settings: Sprague-Dawley, plasma, po
[6] = Oral bioavailability in Sprague-Dawley rat by LC-MS/MS analysis; assay type: ADME, organism-based; settings: Sprague-Dawley, in vivo
[7] = Cmax in Sprague-Dawley rat plasma at 2 mg/kg, IG by LC-MS/MS analysis; assay type: ADME, organism-based; set-up: route […], dose 2 mg/kg; settings: po
[8] = Clearance in Sprague-Dawley rat plasma at 1 mg/kg, iv by LC-MS/MS analysis; assay type: ADME, organism-based
[9] = MRT (0 to infinity) in Sprague-Dawley rat plasma at 1 mg/kg, iv by LC-MS/MS analysis; assay type: ADME, organism-based; settings: in vivo
[10] = AUC (0 to t) in Sprague-Dawley rat plasma at 1 mg/kg, iv by LC-MS/MS analysis; assay type: ADME, organism-based; set-up: dose 1 mg/kg

Chain of RAF proto-oncogene serine/threonine-protein kinase (P04049 whole entry): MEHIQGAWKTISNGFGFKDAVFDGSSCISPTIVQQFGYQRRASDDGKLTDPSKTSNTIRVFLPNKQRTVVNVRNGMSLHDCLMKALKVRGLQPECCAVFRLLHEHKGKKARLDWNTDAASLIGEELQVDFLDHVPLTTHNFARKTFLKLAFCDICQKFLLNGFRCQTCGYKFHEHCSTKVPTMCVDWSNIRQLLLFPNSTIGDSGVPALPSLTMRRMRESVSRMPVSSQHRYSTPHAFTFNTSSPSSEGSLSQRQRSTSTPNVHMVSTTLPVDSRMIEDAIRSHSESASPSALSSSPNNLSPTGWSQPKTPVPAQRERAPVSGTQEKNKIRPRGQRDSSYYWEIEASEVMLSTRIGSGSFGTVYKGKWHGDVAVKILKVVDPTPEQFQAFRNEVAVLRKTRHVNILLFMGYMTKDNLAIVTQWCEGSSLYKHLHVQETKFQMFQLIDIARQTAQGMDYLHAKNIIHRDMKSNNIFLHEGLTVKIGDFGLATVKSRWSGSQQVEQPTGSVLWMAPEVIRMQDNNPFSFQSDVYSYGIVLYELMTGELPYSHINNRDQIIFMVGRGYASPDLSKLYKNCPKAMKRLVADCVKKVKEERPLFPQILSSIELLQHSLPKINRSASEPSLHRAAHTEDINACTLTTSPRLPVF

pIC50 [1]	solubility [2]	Compound	GI50 (NCI-H358)	also measured
8.07	26 µM (≈ 13.1 µg/mL)	Cc1ccc(NC(=O)c2ccnc(C(F)(F)F)c2)cc1-c1cc(OCCO)nc(N2CCOCC2)c1 [NAPORAFENIB]	3000 nM	inhibition in vivo at 30 mg/kg (Calu-6): 67%
8.27		Cc1ccc(NC(=O)c2ccnc(C(F)(F)F)c2)cc1-c1ccc2c(c1)OC1(CCN2)CCOCC1	13000 nM	
8.27	0.06 µM (≈ 0.0307 µg/mL)	Cc1ccc(NC(=O)c2cncc(C(F)(F)F)c2)cc1-c1ccc2c(c1)OC1(CCOCC1)CC(=O)N2	1600 nM	
7.16		Cc1ccc(NC(=O)c2ccc(C(F)(F)F)s2)cc1-c1ccc2c(c1)OC1(CCOCC1)CC(=O)N2	3400 nM	
8.41	2.3 µM (≈ 1.21 µg/mL)	Cc1ccc(NC(=O)c2cc(C(F)(F)F)cnn2)cc1-c1ccc2c(c1)OC1(CCOCC1)CC(=O)N2C	1300 nM	half-life [3]: 4.6 min
7.95	1.4 µM (≈ 0.716 µg/mL)	Cc1ccc(NC(=O)c2cc(C(F)(F)F)ccn2)cc1-c1ccc2c(c1)OC1(CCOCC1)CC(=O)N2	2900 nM	
8.35		Cc1ccc(NC(=O)c2ccnc(C(F)(F)F)c2)cc1-c1ccc2c(c1)OC1(CCOCC1)CC(=O)N2C	7100 nM	
7.71		Cc1ccc(NC(=O)c2cccc(C(F)(F)F)n2)cc1-c1ccc2c(c1)OC1(CCOCC1)CC(=O)N2	6800 nM	
8.30		Cc1ncc(NC(=O)c2ccnc(C(F)(F)F)c2)cc1-c1ccc2c(c1)OC1(CCOCC1)CC(=O)N2	6300 nM	
8.48		Cc1ccc(NC(=O)c2cncc(C(F)(F)F)n2)cc1-c1ccc2c(c1)OC1(CCOCC1)CC(=O)N2	5200 nM	
8.49	0.44 µM (≈ 0.225 µg/mL)	Cc1ccc(NC(=O)c2cnnc(C(F)(F)F)c2)cc1-c1ccc2c(c1)OC1(CCOCC1)CC(=O)N2	2000 nM	half-life [4]: 90 min; AUC(0-t) [5]: 176 ng·h/mL; bioavailability [6]: 9.2%; Cmax [7]: 40 ng/mL; clearance [8]: 16.1 mL/min/kg
8.17		Cc1cc(F)c(NC(=O)Nc2ccnc(C(F)(F)F)c2)cc1-c1ccc2c(c1)OC1(CCOCC1)CC(=O)N2	200 nM	t1/2 [4]: 22.2 min; MRT [9]: 11.4 min; AUC(0-t) [10]: 154 ng·h/mL; clearance [8]: 120 mL/min/kg
7.59		Cc1ccc(NC(=O)c2cc(OCCO)nc(C(F)(F)F)c2)cc1-c1ccc2c(c1)OC1(CCOCC1)CC(=O)N2	4300 nM	
9.10	7 µM (≈ 3.46 µg/mL)	Cc1ccc(NC(=O)c2cc(C(F)F)cnn2)cc1-c1ccc2c(c1)OC1(CCOCC1)CC(=O)N2	3900 nM	
8.33		Cc1cc(F)c(NC(=O)N(C)c2ccnc(C(F)(F)F)c2)cc1-c1ccc2c(c1)OC1(CCOCC1)CC(=O)N2	9400 nM	
7.55		Cc1ccc(NC(=O)c2cc(C(F)(F)F)nn2C)cc1-c1ccc2c(c1)OC1(CCOCC1)CC(=O)N2	13000 nM	
7.47		Cc1ccc(NC(=O)c2ccnc(C(F)(F)F)c2)cc1-c1ccc2c(c1)OC1(CCOCC1)CN(CC(C)(C)O)C2=O	6200 nM	
8.59		Cc1ccc(NC(=O)c2cc(C(F)(F)F)cnn2)cc1-c1ccc2c(c1)OC1(CCOCC1)CC(=O)N2CCO	2600 nM	half-life [3]: 11 min
8.48		Cc1ccc(NC(=O)C2CCNC(C(F)(F)F)C2)cc1-c1ccc2c(c1)OC1(CCOCC1)CC(=O)N2 (configuration not stated)	> 30000 nM	
8.66		Cc1ccc(NC(=O)c2ccnc(C(F)(F)F)c2)nc1-c1ccc2c(c1)OC1(CCOCC1)CC(=O)N2	> 30000 nM	
7.49		Cc1ccc(NC(=O)c2ccnc(C(F)(F)F)c2)cc1-c1ccc2c(c1)OC1(CCOCC1)CCO2	8500 nM	
7.32		Cc1ccc(-c2nnc(-c3ccnc(C(F)(F)F)c3)[nH]2)cc1-c1ccc2c(c1)OC1(CCOCC1)CC(=O)N2	2500 nM	t1/2 [4]: 227 min; AUC(0-t) [5]: 38.6 ng·h/mL; MRT [9]: 155 min; bioavailability [6]: 2.16%; AUC(0-t) [10]: 999 ng·h/mL; clearance [8]: 17.1 mL/min/kg

pIC50 [1]	solubility [2]	Compound	GI50 (NCI-H358)	also measured
6.48		Cc1ccc(NC(=O)c2ccnc(C(F)(F)F)n2)cc1-c1ccc2c(c1)OC1(CCOCC1)CC(=O)N2	12000 nM	
8.49		Cc1cc(F)c(NC(=O)Cc2ccnc(C(F)(F)F)c2)cc1-c1ccc2c(c1)OC1(CCOCC1)CC(=O)N2	9400 nM	
7.49		Cc1ccc(NS(=O)(=O)c2ccnc(C(F)(F)F)c2)cc1-c1ccc2c(c1)OC1(CCOCC1)CC(=O)N2	> 30000 nM	
7.89		Cc1ccc(NC(=O)c2ccnc(C(F)(F)F)c2)cc1-c1ccc2c(c1)OC1(CCOCC1)CN(CCN(C)C)C2=O	7600 nM	
8.89	311 µM (≈ 173 µg/mL)	Cc1ccc(NC(=O)c2ccnc(C(F)(F)F)c2)cc1-c1ccc2c(c1)OC1(CCOCC1)CN(CCO)C2=O	3200 nM	AUC(0-t) [5]: 29 ng·h/mL; bioavailability [6]: 3.47%; Cmax [7]: 5.9 ng/mL; clearance [8]: 40.4 mL/min/kg
8.44		COc1ccc(NC(=O)c2ccnc(C(F)(F)F)c2)cc1-c1ccc2c(c1)OC1(CCOCC1)CC(=O)N2	5900 nM	
7.68		Cc1ccc(C(=O)Nc2ccnc(C(F)(F)F)c2)cc1-c1ccc2c(c1)OC1(CCOCC1)CC(=O)N2	8600 nM	
8.15	0.61 µM (≈ 0.295 µg/mL)	Cc1ccc(NC(=O)c2ccnc(C3CC3)c2)cc1-c1ccc2c(c1)OC1(CCOCC1)CC(=O)N2	2500 nM	
8.89	8.5 µM (≈ 4.47 µg/mL)	Cc1ccc(NC(=O)c2ccnc(C(F)(F)F)c2)cc1-c1ccc2c(c1)OC1(CCOCC1)CN(C)C2=O	2900 nM	
8.26	0.35 µM (≈ 0.179 µg/mL)	Cc1ccc(NC(=O)c2cc(C(F)(F)F)ncn2)cc1-c1ccc2c(c1)OC1(CCOCC1)CC(=O)N2	2700 nM	
7.66	3.6 µM (≈ 1.95 µg/mL)	COc1nnc(C(=O)Nc2ccc(C)c(-c3ccc4c(c3)OC3(CCOCC3)CC(=O)N4)c2)cc1C(F)(F)F	2600 nM	half-life [3]: 57 min
8.70	1.4 µM (≈ 0.717 µg/mL)	Cc1ccc(NC(=O)c2nccc(C(F)(F)F)n2)cc1-c1ccc2c(c1)OC1(CCOCC1)CC(=O)N2	2300 nM	
9.08		Cc1ccc(NC(=O)c2ccnc(C(F)(F)F)c2)cc1-c1ccc2c(c1)OC1(CCOCC1)CC(=O)N2CCO	4700 nM	
7.89		Cc1ccc(NC(=O)N2CCCC(C(F)(F)F)C2)cc1-c1ccc2c(c1)OC1(CCOCC1)CC(=O)N2 (configuration not stated)	5500 nM	
8.46		O=C1CC2(CCOCC2)Oc2cc(-c3cc(NC(=O)c4ccnc(C(F)(F)F)c4)ccc3CO)ccc2N1	21000 nM	
8.74		Cc1cnc(NC(=O)c2ccnc(C(F)(F)F)c2)cc1-c1ccc2c(c1)OC1(CCOCC1)CC(=O)N2	3800 nM	
8.44	10.4 µM (≈ 5.32 µg/mL)	Cc1ccc(NC(=O)c2ccnc(C(F)(F)F)c2)cc1-c1ccc2c(c1)OC1(CCOCC1)CNC2=O	2900 nM	AUC(0-t) [5]: 41.3 ng·h/mL; Cmax [7]: 7.7 ng/mL
8.37		Cc1ccc(NC(=O)c2ccnc(C(F)(F)F)c2)cc1-c1ccc2c(c1)OC1(CCOCC1)CNC2	15000 nM	
8.04	0.41 µM (≈ 0.234 µg/mL)	Cc1ccc(NC(=O)c2cc(OCCO)nc(OC(F)F)c2)cc1-c1ccc2c(c1)OC1(CCOCC1)CC(=O)N2	2000 nM	
8.39	0.16 µM (≈ 0.0815 µg/mL)	Cc1ccc(NC(=O)c2ccnc(OC(F)F)c2)cc1-c1ccc2c(c1)OC1(CCOCC1)CC(=O)N2	900 nM	half-life [4]: 90 min; AUC(0-t) [5]: 455 ng·h/mL; bioavailability [6]: 22%; Cmax [7]: 107 ng/mL; clearance [8]: 16.7 mL/min/kg
8.47		Cc1ccc(NC(=O)c2cc(OC3CC3)cnn2)cc1-c1ccc2c(c1)OC1(CCOCC1)CC(=O)N2	1900 nM	half-life [3]: 6.8 min
